Tested on: patients with advanced solid tumors
Assay: phase I dose escalation: safety, DLT, MTD, RP2D (CTCAE v. 5)
Assay type: in vivo
Source text: Subsequent dosing cohorts were enrolled using a standard 3 + 3 design.
If any patient in any cohort of three patients developed a DLT during cycle 1, an additional three patients were recruited to expand the cohort to up to six evaluable patients. If two or more patients in any expanded cohort developed a DLT, this dose was considered non-tolerated, and dose escalation was discontinued. The MTD was defined as the highest dose level for which no more than one of six patients experienced a DLT.
Patients were continuously evaluated for adverse events throughout the study using the Common Terminology Criteria of Adverse Events (CTCAE v. 5). The patients underwent a clinical history and physical examination, an ECOG PS, a complete blood count (CBCs), chemistry, coagulation studies, urinalysis, a serum pregnancy test (as applicable), a triplicate ECG, an ophthalmology examination, and baseline tumor assessment at screening. During cycle 1, weekly history and physical examination, CBC, chemistry, coagulation parameters, urinalysis, and triplicate ECGs were performed; in subsequent cycles, weekly labs were limited to a CBC. Repeat ophthalmology examinations were performed at cycle 3, day 1, and at the end of treatment. Repeat tumor assessment was performed every 2 cycles (6 weeks) in accordance with RECIST 1.1.

[1] = 4:3 intermittent dosing schedule, all grades

CC(C)[C@H](N)C(=O)SCC/C=C/[C@@H]1CC(=O)NCc2nc(cs2)C(=O)NC(C)(C)C(=O)N[C@@H](C(C)C)C(=O)O1 [OKI-179, Bocodepsin]
1 (17) N (%): TEAE: Abdominal pain (5:2, 300 mg (N=6), All grades) | TEAE: Aspartate aminotransferase increased (5:2, 300 mg (N=6), All grades) | TEAE: Bile duct stenosis (5:2, 300 mg (N=6), All grades) | TEAE: Blood alkaline phosphatase increased (5:2, 300 mg (N=6), All grades) | TEAE: Dehydration (5:2, 300 mg (N=6), All grades) | TEAE: Dysphagia (5:2, 300 mg (N=6), All grades) | TEAE: Enterococcal bacteremia (5:2, 300 mg (N=6), All grades) | TEAE: Esophagitis (5:2, 300 mg (N=6), All grades) | TEAE: Esophagoscopy (5:2, 300 mg (N=6), All grades) | TEAE: Eye pain (5:2, 300 mg (N=6), All grades) | TEAE: Gastritis (5:2, 300 mg (N=6), All grades) | TEAE: Hypomagnesaemia (5:2, 300 mg (N=6), All grades) | TEAE: Myalgia (5:2, 300 mg (N=6), All grades) | TEAE: Neutrophil count decreased (5:2, 300 mg (N=6), All grades) | TEAE: Oropharyngeal pain (5:2, 300 mg (N=6), All grades) | TEAE: Pain in extremity (5:2, 300 mg (N=6), All grades) | TEAE: Paresthesia (5:2, 300 mg (N=6), All grades) | TEAE: Pneumonitis (5:2, 300 mg (N=6), All grades) | TEAE: Pneumothorax (5:2, 300 mg (N=6), All grades) | TEAE: Anemia (5:2, 300 mg (N=6), G1) | TEAE: Aspartate aminotransferase increased (5:2, 300 mg (N=6), G1) | TEAE: Back pain (5:2, 300 mg (N=6), G1) | TEAE: Blood alkaline phosphatase increased (5:2, 300 mg (N=6), G1) | TEAE: Dehydration (5:2, 300 mg (N=6), G1) | TEAE: Esophagitis (5:2, 300 mg (N=6), G1) | TEAE: Eye pain (5:2, 300 mg (N=6), G1) | TEAE: Fatigue (5:2, 300 mg (N=6), G1) | TEAE: Gastritis (5:2, 300 mg (N=6), G1) | TEAE: Hypomagnesaemia (5:2, 300 mg (N=6), G1) | TEAE: Myalgia (5:2, 300 mg (N=6), G1) | TEAE: Neutrophil count decreased (5:2, 300 mg (N=6), G1) | TEAE: Paresthesia (5:2, 300 mg (N=6), G1) | TEAE: Abdominal pain (5:2, 300 mg (N=6), G2) | TEAE: Decreased appetite (5:2, 300 mg (N=6), G2) | TEAE: Dysphagia (5:2, 300 mg (N=6), G2) | TEAE: Esophagoscopy (5:2, 300 mg (N=6), G2) | TEAE: Oropharyngeal pain (5:2, 300 mg (N=6), G2) | TEAE: Pain in extremity (5:2, 300 mg (N=6), G2)
15%: grade 3 TEAE: fatigue (4:3 schedule) | grade 3 TEAE: prolonged QT (4:3 schedule)
3 (50) N (%): TEAE: Vomiting (5:2, 300 mg (N=6), All grades) | TEAE: Fatigue (5:2, 300 mg (N=6), G2)
2 (33) n (%): TEAE: Back pain (4:3, 450 mg (n = 6), G1) | TEAE: Nausea (4:3, 450 mg (n = 6), G1) | TEAE: Platelet count decreased (4:3, 450 mg (n = 6), G2) | TEAE: Anemia (4:3, 450 mg (n = 6), G3)
35%: TEAE: anorexia [1]
0 N (%): TEAE: Abdominal pain (5:2, 300 mg (N=6), G1) | TEAE: Bile duct stenosis (5:2, 300 mg (N=6), G1) | TEAE: Decreased appetite (5:2, 300 mg (N=6), G1) | TEAE: Dysphagia (5:2, 300 mg (N=6), G1) | TEAE: Enterococcal bacteremia (5:2, 300 mg (N=6), G1) | TEAE: Esophagoscopy (5:2, 300 mg (N=6), G1) | TEAE: Oropharyngeal pain (5:2, 300 mg (N=6), G1) | TEAE: Pain in extremity (5:2, 300 mg (N=6), G1) | TEAE: Pneumonitis (5:2, 300 mg (N=6), G1) | TEAE: Pneumothorax (5:2, 300 mg (N=6), G1) | TEAE: Anemia (5:2, 300 mg (N=6), G2) | TEAE: Aspartate aminotransferase increased (5:2, 300 mg (N=6), G2) | TEAE: Back pain (5:2, 300 mg (N=6), G2) | TEAE: Bile duct stenosis (5:2, 300 mg (N=6), G2) | TEAE: Blood alkaline phosphatase increased (5:2, 300 mg (N=6), G2) | TEAE: Dehydration (5:2, 300 mg (N=6), G2) | TEAE: ECG QT prolonged (5:2, 300 mg (N=6), G2) | TEAE: Enterococcal bacteremia (5:2, 300 mg (N=6), G2) | TEAE: Esophagitis (5:2, 300 mg (N=6), G2) | TEAE: Eye pain (5:2, 300 mg (N=6), G2) | TEAE: Gastritis (5:2, 300 mg (N=6), G2) | TEAE: Hypomagnesaemia (5:2, 300 mg (N=6), G2) | TEAE: Myalgia (5:2, 300 mg (N=6), G2) | TEAE: Nausea (5:2, 300 mg (N=6), G2) | TEAE: Neutrophil count decreased (5:2, 300 mg (N=6), G2) | TEAE: Paresthesia (5:2, 300 mg (N=6), G2)
25%: TEAE: Diarrhea [1] | grade 3 TEAE: anemia (4:3 schedule)
40%: TEAE: Anemia [1] | TEAE: Fatigue [1]
83%: grade 1 or 2 nausea (4:3 schedule, 450 mg)
30%: TEAE: Vomiting [1] | TEAE: decreased platelet count [1]
5 (83) N (%): TEAE: Nausea (5:2, 300 mg (N=6), All grades)
1 (17) n (%): TEAE: Cough (4:3, 450 mg (n = 6), G1) | TEAE: Decreased appetite (4:3, 450 mg (n = 6), G1) | TEAE: ECG QT prolonged (4:3, 450 mg (n = 6), G1) | TEAE: Headache (4:3, 450 mg (n = 6), G1) | TEAE: Platelet count decreased (4:3, 450 mg (n = 6), G1) | TEAE: Pyrexia (4:3, 450 mg (n = 6), G1) | TEAE: Vomiting (4:3, 450 mg (n = 6), G1) | TEAE: Weight decreased (4:3, 450 mg (n = 6), G1) | TEAE: Decreased appetite (4:3, 450 mg (n = 6), G2) | TEAE: Hypokalaemia (4:3, 450 mg (n = 6), G2) | TEAE: ECG QT prolonged (4:3, 450 mg (n = 6), G3) | TEAE: Fatigue (4:3, 450 mg (n = 6), G3) | TEAE: Muscular weakness (4:3, 450 mg (n = 6), G3)
3 (50) n (%): TEAE: Nausea (4:3, 450 mg (n = 6), G2) | TEAE: Proteinuria (4:3, 450 mg (n = 6), G2)
63%: TEAE: Nausea [1]
4 (67) N (%): TEAE: Fatigue (5:2, 300 mg (N=6), All grades) | TEAE: Platelet count decreased (5:2, 300 mg (N=6), All grades) | TEAE: Nausea (5:2, 300 mg (N=6), G1) | TEAE: Platelet count decreased (5:2, 300 mg (N=6), G1)
2 (33) N (%): TEAE: Anemia (5:2, 300 mg (N=6), All grades) | TEAE: Back pain (5:2, 300 mg (N=6), All grades) | TEAE: Decreased appetite (5:2, 300 mg (N=6), All grades) | TEAE: ECG QT prolonged (5:2, 300 mg (N=6), All grades) | TEAE: ECG QT prolonged (5:2, 300 mg (N=6), G1) | TEAE: Vomiting (5:2, 300 mg (N=6), G1)
0 n (%): TEAE: Hypokalaemia (4:3, 350 mg (n = 3), G3) | TEAE: Muscular weakness (4:3, 350 mg (n = 3), G3) | TEAE: Nasal congestion (4:3, 350 mg (n = 3), G3) | TEAE: Nausea (4:3, 350 mg (n = 3), G3) | TEAE: Platelet count decreased (4:3, 350 mg (n = 3), G3) | TEAE: Proteinuria (4:3, 350 mg (n = 3), G3) | TEAE: Pyrexia (4:3, 350 mg (n = 3), G3) | TEAE: Vomiting (4:3, 350 mg (n = 3), G3) | TEAE: Weight decreased (4:3, 350 mg (n = 3), G3) | TEAE: Anemia (4:3, 450 mg (n = 6), G1) | TEAE: Diarrhea (4:3, 450 mg (n = 6), G1) | TEAE: Dyspnea (4:3, 450 mg (n = 6), G1) | TEAE: Fatigue (4:3, 450 mg (n = 6), G1) | TEAE: Hypokalaemia (4:3, 450 mg (n = 6), G1) | TEAE: Muscular weakness (4:3, 450 mg (n = 6), G1) | TEAE: Proteinuria (4:3, 450 mg (n = 6), G1) | TEAE: Anemia (4:3, 450 mg (n = 6), G2) | TEAE: Back pain (4:3, 450 mg (n = 6), G2) | TEAE: Cough (4:3, 450 mg (n = 6), G2) | TEAE: Diarrhea (4:3, 450 mg (n = 6), G2) | TEAE: Dyspnea (4:3, 450 mg (n = 6), G2) | TEAE: ECG QT prolonged (4:3, 450 mg (n = 6), G2) | TEAE: Fatigue (4:3, 450 mg (n = 6), G2) | TEAE: Headache (4:3, 450 mg (n = 6), G2) | TEAE: Muscular weakness (4:3, 450 mg (n = 6), G2) | TEAE: Nasal congestion (4:3, 450 mg (n = 6), G2) | TEAE: Pyrexia (4:3, 450 mg (n = 6), G2) | TEAE: Vomiting (4:3, 450 mg (n = 6), G2) | TEAE: Weight decreased (4:3, 450 mg (n = 6), G2) | TEAE: Back pain (4:3, 450 mg (n = 6), G3) | TEAE: Cough (4:3, 450 mg (n = 6), G3) | TEAE: Decreased appetite (4:3, 450 mg (n = 6), G3) | TEAE: Diarrhea (4:3, 450 mg (n = 6), G3) | TEAE: Dyspnea (4:3, 450 mg (n = 6), G3) | TEAE: Headache (4:3, 450 mg (n = 6), G3) | TEAE: Hypokalaemia (4:3, 450 mg (n = 6), G3) | TEAE: Nasal congestion (4:3, 450 mg (n = 6), G3) | TEAE: Nausea (4:3, 450 mg (n = 6), G3) | TEAE: Platelet count decreased (4:3, 450 mg (n = 6), G3) | TEAE: Proteinuria (4:3, 450 mg (n = 6), G3) | TEAE: Pyrexia (4:3, 450 mg (n = 6), G3) | TEAE: Vomiting (4:3, 450 mg (n = 6), G3) | TEAE: Weight decreased (4:3, 450 mg (n = 6), G3)

— paper PMC10778198, “First-in-Human Dose-Escalation Study of the Novel Oral Depsipeptide Class I-Targeting HDAC Inhibitor Bocodepsin (OKI-179) in Patients with Advanced Solid Tumors” (Cancers, 2023)
